Assay results: paper PMC3188543, “The Anti-interferon Activity of Conserved Viral dUTPase ORF54 is Essential for an Effective MHV-68 Infection” (PLoS Pathogens, 2011)

Biological target: T1, murine cellular dUTPase (Mus musculus, UniProt Q9CQ43)
T1 construct: gene Dut; FLAG-tagged, expressed in 293T, anti-FLAG immunopurified, 3xFLAG peptide eluted; tag kept; homotrimer
T1 sequence (Q9CQ43 1-162): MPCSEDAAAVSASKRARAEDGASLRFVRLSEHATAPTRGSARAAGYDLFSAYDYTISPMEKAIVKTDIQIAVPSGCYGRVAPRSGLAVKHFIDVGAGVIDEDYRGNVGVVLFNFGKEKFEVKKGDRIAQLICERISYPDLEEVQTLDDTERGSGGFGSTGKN
Test: dUTP hydrolysis, read out by PCR with remaining dUTP in place of dTTP (gel)
Type: biochemical
Conditions: pH 7.5, 37 C, MgCl2, DTT, BSA; 5 mM dUTP stock; 0-25 h

O=c1ccn([C@H]2C[C@H](O)[C@@H](COP(=O)(O)OP(=O)(O)OP(=O)(O)O)O2)c(=O)[nH]1 [dUTP]
dUTP hydrolysis, read out by PCR with remaining dUTP in place of dTTP (gel): used to determine the presence of functional dUTP after incubation
